The text below walks through data of patent US20230313311A1, “METHOD OF ASSESSING THE CIRCADIAN RHYTHM OF A SUBJECT HAVING CANCER AND/OR ASSESSING A TIMING OF ADMINISTRATION OF A MEDICAMENT TO SAID SUBJECT HAVING CANCER” (priority 2020, published 2023).

Data set [1] deals with BMAL1-Promoter activity in HCT116, SW480 and SW620 colon cancer cells. As to the kind of experiment: BMAL1-Promoter activity, live-cell bioluminescence recording over five days. Conditions: treated vs control, n=3. In kind it is cell-based, human. As to the method: Here, the three cell lines were treated with several anti-cancer drugs, including WZB117, Oxaliplatin and cisplatin, and the rhythmic promoter activity of BMAL1 was measured over several days (FIG. 13). […] More specifically, HCT116, SW480 and SW620 colon cancer cells were treated with Oxaliplatin, Cisplatin and WZB117. BMAL1-Promoter activity was measured using live-cell bioluminescence recording over five days. Shown is one representative plot for the control (black) and the treated (grey dashed) condition, n=3.
BMAL1-Promoter activity was measured using live-cell bioluminescence recording over five days. Shown is one representative plot for the control (black) and the treated (grey) condition, n=3.

The test system of data set [2] is core-clock downregulated (shBMAL1, shNR1D1 and shPER2) HCT116 cancer cell lines. The data set is described as follows: Cell proliferation measured using confluence after time-dependent treatment. In kind it is cell-based, human. Conditions: 10 μM; treated at 18 h, 21 h and 24 h after cell synchronization; confluence over five days; n=3. On the procedure: FIG. 15 illustrates how cell proliferation for an exemplified for a human cancer cell type is affected by Cisplatin treatment in a time-dependent manner;
In addition to the BMAL1 rhythmicity data, preliminary data were obtained pointing towards the differential regulation of cancer cell proliferation based on the timing of drug administration. […] Cell proliferation was measured using confluence over five days. n=3.

Another data set deals with mice. Conditions: among six mouse categories; treatment tolerability as output; cited from earlier work.
The subject of data set [3] is SW480 colorectal cancer cells. Conditions: cited from earlier work; for effect of drug administration depending on time: control cells; for effect of drug administration depending on time after BMAL1 downregulation: core-clock gene BMAL1 downregulated.
For a further data set, the system named is Panc1 cells. Conditions: cited from earlier work.
The next data set has as its system AsPC1 cells. Conditions: SMAD4 deficient AsPC1; treated 17 h, 20 h, 23 h after synchronization; cited from earlier work.

Regarding `N.N.[Cl][Pt][Cl]` [Cisplatin], the “effect of drug application on rhythmicity of BMAL1 promoter activity” value (“effect of drug application” below) in data set [1] is “altered the rhythmicity of the core-clock gene BMAL1”. The “cell proliferation depending on timing of drug administration” value in data set [2] is “reduced cell proliferation for shNR1D1 and shPER2 cells, when cells were treated at 24 h after synchronization compared to the other time-points”.

Turning to `CCc1c2c(nc3ccc(OC(=O)N4CCC(N5CCCCC5)CC4)cc13)-c1cc3c(c(=O)n1C2)COC(=O)[C@]3(O)CC` [Irinotecan], the “effect of drug application” value in data set [1] was “alters BMAL1 rhythmic promoter activity”. The “variation of optimal circadian timing along the 24 hours” value with mice is on record as “up to 8 hour”.

On to `O=C1[O][Pt]2([NH][C@@H]3CCCC[C@H]3[NH]2)[O]C1=O` [Oxaliplatin], for which the “effect of drug application” value in data set [1] is reported as “altered the rhythmicity of the core-clock gene BMAL1”. Also, in data set [3], the “effect of drug administration depending on time” value is listed as “time-dependent” and the “effect of drug administration depending on time after BMAL1 downregulation” value was “this effect is lost”.

Regarding `O=C(Oc1cccc(F)c1OC(=O)c1cccc(O)c1)c1cccc(O)c1` [WZB117], the “effect of drug application” value in data set [1] is “altered the rhythmicity of the core-clock gene BMAL1”. In data set [3], the “effect of drug administration depending on time” value is recorded as “time-dependent” and the “effect of drug administration depending on time after BMAL1 downregulation” value is “this effect is lost”.

On to `Nc1ccn([C@@H]2O[C@H](CO)[C@@H](O)C2(F)F)c(=O)n1` [gemcitabine], for which the “differential drug response to different treatment time points after gene downregulation” value in the data set with Panc1 cells (Panc1 with downregulation of NR1D1 or SMAD4) was “the differential drug response to different treatment time points is impaired”. The “response to time-dependent treatment” value in the data set on Panc1 cells (SMAD4 proficient Panc1, treated 17 h, 20 h, 23 h after synchronization) was “more resistant to treatment”; in the data set on AsPC1 cells, “this effect is not observed”.
